One assay has as its target T1, Gal4 PPARα (Homo sapiens, UniProt Q07869).
T1 construct: expressed in transfected cells; host or cells: CV1 (African green monkey kidney)
T1 sequence (Q07869 239-466 limits assumed): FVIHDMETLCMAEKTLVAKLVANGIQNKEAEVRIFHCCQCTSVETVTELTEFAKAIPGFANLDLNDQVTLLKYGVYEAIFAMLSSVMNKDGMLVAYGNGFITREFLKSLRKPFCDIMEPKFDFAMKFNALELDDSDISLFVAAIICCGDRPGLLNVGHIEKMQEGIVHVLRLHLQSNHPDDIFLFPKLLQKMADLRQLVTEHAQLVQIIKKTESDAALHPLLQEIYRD
Kind of assay: Gal4 PPARα reporter functional assay (CTF). The assay is classed as cell-based. The settings on record: examined up to 10 μM; CV1 cells; luciferase. The source says: Gal4 PPARα, Gal4 PPARδ, and PPARγ reporter functional assays are also used to monitor the selectivity of exemplified compounds. CV1 cells, which are derived from the renal tissue of an African green monkey, are transfected with various receptor and reporter plasmids using Fugene. For the Gal4 PPARα and PPARδ assays, a reporter plasmid containing five tandem copies of the yeast transcription protein Gal4 response element, cloned upstream of a firefly luciferase gene driven by the major late promoter of adenovirus, is transfected together with a Simian Virus 40 (SV40) driven plasmid constitutively expressing a hybrid protein containing the Gal4 DNA binding domain (DBD), and either the PPARα or PPARδ ligand binding. For the PPARγ assay, plasmids encoding PPARγ and RXRα, both driven by a cytomegalovirus (CMV) promoter are transfected together with a plasmid containing luciferase reporter cDNA driven by the TK promoter and a receptor response element (2×PPRE). Cells are transfected in T225 cm^2 cell culture flasks in DMEM media with 5% charcoal-stripped FBS. […] After 24 hours incubation with compounds, cells are lysed and luciferase activity is determined as a measure of receptor activation by luminescence. […] The maximum percent stimulation is determined versus maximum stimulation obtained with 10 μM of an appropriate PPAR agonist reference compound. […]

Another assay relates to Male Balb/c mice. Briefly: Intraperitoneal Glucose Tolerance Test (IPGTT). The class given is in vivo, mouse. The conditions noted are these: for glucose levels: positive control 10 mg/kg. The protocol:
To examine the ability of exemplified compounds to activate GPR40 in-vivo resulting in anti-diabetic efficacy, i.e. an increase in insulin and reduction in glucose levels, a 4-day intraperitoneal glucose tolerance test (ipGTT) study is completed with each compound.
Male Balb/c (Albino mice) mice (8-9 weeks of age) are single housed and fed with normal rodent chow diet and water ad libitum. Animals are weighed and randomized by body weight and daily body weights are recorded. Upon study initiation, animals are dosed once per day orally for three days using a formulation carrying methylcellulose and tween-80. On the night before the 4-day IPGTT study, animals are fasted overnight in clean cages. On the morning of the IPGTT (Day 4), animals are dosed orally with compound or vehicle alone 60 minutes prior to the IPGTT (glucose 2 g/kg, i.p.). Blood glucose levels are determined from tail bleeds taken at 0, 3, 7, 15, 30, and 60 min after glucose challenge. Plasma is isolated and used to estimate respective insulin levels. The blood glucose excursion profile from t=0 to t=60 min is used to integrate an area under the curve (AUC) for each treatment. Percent lowering in glucose is calculated from the AUC data of the compounds with respect to the AUC of vehicle group. The test compound is orally administered at 0.03, 0.1, 0.3, 1.0, or 3.0 mg/kg, and a positive control is administered at 10 mg/kg. […] The ED50 for the compound of Example 1 based on AUCs for glucose lowering is 0.09 mg/kg. […] The results of this assay support the compound's activation of GPR-40, with resulting in vivo anti-diabetic efficacy.

A word on the ED50: it is the dose at which the effect has come halfway, by size or by number of responders. On to `CC#C[C@@H](CC(=O)O)c1ccc(OCc2ccc(CN3CCC4(C=Cc5ccccc54)CC3)cc2)cc1` [Example 1, (3S)-3-(4-{[4-(1′H-Spiro[indene-1,4′-piperidin]-1′-ylmethyl)benzyl]oxy}phenyl)hex-4-ynoic acid], for which the functional activation result on Gal4 PPARα is given as “No functional activation”. Also, in the assay on Male Balb/c mice (3 minute time point, 1.0 and 3.0 mg/kg oral), the insulin levels result is listed as “significantly elevated”. Besides, the glucose levels entry with Male Balb/c mice (3 minute time point, Example 1 0.03-3.0 mg/kg oral) is given as “No concentration of the compound of Example 1 or the positive control significantly lowered”; in the assay on Male Balb/c mice (7 minute time point, Example 1 0.3, 1.0, and 3.0 mg/kg oral), “significantly lowered”; with Male Balb/c mice (15 minute time point, Example 1 0.1, 0.3, 1.0, and 3.0 mg/kg oral), “significantly lowered”; in the assay with Male Balb/c mice (30 minute time point, all doses of Example 1 (0.03-3.0 mg/kg oral)) it was “significantly lowered”; with Male Balb/c mice (60 minute time point, all doses of Example 1 (0.03-3.0 mg/kg oral)) it was “significantly lowered”. In addition, the median effective dose (ED50) with Male Balb/c mice (Mus musculus, oral, once per day, 4-day, glucose 2 g/kg i.p., AUC t=0 to 60 min, read-out: ED50 based on AUCs for glucose lowering) was determined as 0.09 mg/kg.

Values taken from patent US8383642B2, “Spiropiperidine compounds” (Eli Lilly and Company, priority 2009, dated 2013).
